The CheMixHub viscosity set

Assay: xn = mol fraction of the nth substance listed

CC/C(C)=N/O + CCCCCC
viscosity [mPa·s], 101.3 kPa
Conditions | x1 = 0.0993 | x1 = 0.1991 | x1 = 0.2977 | x1 = 0.3987 | x1 = 0.4972 | x1 = 0.5993 | x1 = 0.6977 | x1 = 0.7981 | x1 = 0.899
293.15 K | 0.345 | 0.393 | 0.461 | 0.556 | 0.69 | 0.899 | 1.213 | 1.729 | 2.695
298.15 K | 0.33 | 0.376 | 0.437 | 0.526 | 0.646 | 0.835 | 1.111 | 1.559 | 2.357
303.15 K | 0.315 | 0.357 | 0.414 | 0.495 | 0.605 | 0.776 | 1.019 | 1.411 | 2.09

O=S(=O)([O-])NC1CCCCC1.[Cs+] + O
viscosity [mPa·s], 101 kPa
Conditions | x1 = 0.0009023 | x1 = 0.001363 | x1 = 0.001814 | x1 = 0.002253 | x1 = 0.002731 | x1 = 0.00317 | x1 = 0.003611 | x1 = 0.004062
293.15 K | 1.024 | 1.036 | 1.047 | 1.058 | 1.071 | 1.082 | 1.093 | 1.105
298.15 K | 0.91 | 0.9199 | 0.9302 | 0.9399 | 0.951 | 0.9605 | 0.9704 | 0.9807
303.15 K | 0.8151 | 0.8242 | 0.8329 | 0.8415 | 0.8512 | 0.8595 | 0.8685 | 0.8771
313.15 K | 0.6672 | 0.6742 | 0.6815 | 0.6879 | 0.6959 | 0.7025 | 0.7097 | 0.7163
323.15 K | 0.5584 | 0.5642 | 0.5696 | 0.5753 | 0.5813 | 0.5866 | 0.5921 | 0.5977

O=CO + O
Conditions | viscosity [mPa·s]
293.15 K, 101.33 kPa, x1 = 0.0417 | 1.098
293.15 K, 101.33 kPa, x1 = 0.1309 | 1.195
293.15 K, 101.33 kPa, x1 = 0.144 | 1.216
293.15 K, 101.33 kPa, x1 = 0.1574 | 1.215
293.15 K, 101.33 kPa, x1 = 0.2621 | 1.323
293.15 K, 101.33 kPa, x1 = 0.2708 | 1.328
293.15 K, 101.33 kPa, x1 = 0.281 | 1.344
293.15 K, 101.33 kPa, x1 = 0.2928 | 1.347
293.15 K, 101.33 kPa, x1 = 0.3352 | 1.394
293.15 K, 101.33 kPa, x1 = 0.338 | 1.4
293.15 K, 101.33 kPa, x1 = 0.3556 | 1.4
293.15 K, 101.33 kPa, x1 = 0.3729 | 1.414
293.15 K, 101.33 kPa, x1 = 0.4039 | 1.478
293.15 K, 101.33 kPa, x1 = 0.4086 | 1.48
293.15 K, 101.33 kPa, x1 = 0.4832 | 1.519
293.15 K, 101.33 kPa, x1 = 0.5055 | 1.525
293.15 K, 101.33 kPa, x1 = 0.5951 | 1.601
293.15 K, 101.33 kPa, x1 = 0.9418 | 1.68
298.15 K, 101 kPa, x1 = 0.0122 | 0.907
298.15 K, 101 kPa, x1 = 0.1286 | 1.041
298.15 K, 101 kPa, x1 = 0.525 | 1.379
298.15 K, 101.33 kPa, x1 = 0.1037 | 0.979
298.15 K, 101.33 kPa, x1 = 0.1496 | 1.029
298.15 K, 101.33 kPa, x1 = 0.1753 | 1.039
298.15 K, 101.33 kPa, x1 = 0.2194 | 1.076
298.15 K, 101.33 kPa, x1 = 0.3029 | 1.174
298.15 K, 101.33 kPa, x1 = 0.3271 | 1.219
298.15 K, 101.33 kPa, x1 = 0.3334 | 1.227
298.15 K, 101.33 kPa, x1 = 0.3355 | 1.228
298.15 K, 101.33 kPa, x1 = 0.3729 | 1.268
298.15 K, 101.33 kPa, x1 = 0.4205 | 1.305
298.15 K, 101.33 kPa, x1 = 0.4762 | 1.356
298.15 K, 101.33 kPa, x1 = 0.4906 | 1.36
298.15 K, 101.33 kPa, x1 = 0.5185 | 1.362
298.15 K, 101.33 kPa, x1 = 0.6055 | 1.427
298.15 K, 101.33 kPa, x1 = 0.9418 | 1.598
303.15 K, 101 kPa, x1 = 0.0501 | 0.849
303.15 K, 101 kPa, x1 = 0.1061 | 0.897
303.15 K, 101 kPa, x1 = 0.169 | 0.95
303.15 K, 101 kPa, x1 = 0.2404 | 0.994
303.15 K, 101 kPa, x1 = 0.3219 | 1.062
303.15 K, 101 kPa, x1 = 0.4159 | 1.156
303.15 K, 101 kPa, x1 = 0.5255 | 1.159
303.15 K, 101 kPa, x1 = 0.655 | 1.234
303.15 K, 101 kPa, x1 = 0.8103 | 1.288
313.15 K, 101.33 kPa, x1 = 0.0417 | 0.729
313.15 K, 101.33 kPa, x1 = 0.144 | 0.809
313.15 K, 101.33 kPa, x1 = 0.281 | 0.92
